Measured values reported in US7795446B2, “Benzimidazole derivatives useful as selective androgen receptor modulators (SARMS)” (priority 2004, dated 2010).

System: ventral prostate and seminal vesicle weights, testosterone propionate-treated castrated male Sprague Dawley rats
Test: Ventral Prostate and Seminal Vesicle Weight In Vivo Assay
Conditions: percent inhibition of testosterone-enhanced prostate weight; immature castrated male rats; test compound usually orally 40 mg/kg (2 mg/day) once daily for five days plus testosterone propionate 2 mg/kg s.c.
Method: Ventral Prostate and Seminal Vesicle Weight In Vivo Assay
Immature (approximately 50 g) castrated male Sprague Dawley rats (Charles River) were treated once daily for five days with test compound (usually given orally at 40 mg/kg in a volume of 0.3 mL, in 30% cyclodextrin or 0.5% methylcellulose vehicle) and with testosterone propionate (given subcutaneously by injection at the nape of the neck at 2 mg/kg, in a volume of 0.1 mL in sesame oil). On the sixth day, the rats were euthanized by asphyxiation in carbon dioxide. Ventral prosatates and seminal vesicles were removed and their wet weights determined. Test compound activity was determined as the percent inhibition of testosterone-enhanced tissue weights, with a vehicle-treated control group set to zero percent and a testosterone alone-treated control group set to 100%.
Representative compounds of the present invention were tested according to the procedure described, with results as listed in Table 7 below. A test compound is listed as “active” if the non weight adjusted prostate weight was ≦40 mg or the % Inhibition prostate weight, body weight adjusted was ≧40%@ 2 mg/day dosage. ID50's, if determined, of ≦15 mg/day also indicated an “active” compound.

Compound | Activity
3,3,3-Trifluoro-2-methoxy-2-phenyl-propionic acid 1-(5,6-dichloro-1H-benzamidazol-2-yl)-2,2,2-trifluoro-1-methyl-ethyl ester [Compound 107] | active
CSCC(C)(O)c1nc2cc(Cl)c(Cl)cc2n1C (stereo not shown) [Compound 12] | active
Cn1c(C(C)(O)CSCc2ccccc2)nc2cc(Cl)c(Cl)cc21 (stereo not shown) [Compound 23] | active
O=[N+]([O-])c1cc2nc(C(O)C(F)(F)F)[nH]c2cc1[N+](=O)[O-] (stereo not shown) [Compound 155, 1-(5,6-Dinitro-1H-benzoimidazol-2-yl-)2,2,2-trifluoro-ethanol] | inactive
